We go through eleven compounds from ChEMBL document CHEMBL1201862, “PubChem BioAssay data set” (2004).

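Exposure lasted 48 hours, with cells grown in 96-well plates and compounds tested at five concentrations. GI50 marks 50% less growth.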 Calls of active or inactive are those of the source. No stated cut-off is given here; in the data, active = GI50 up to about 1.1 µM and inactive = higher.

Among the test systems are A498; ACHN; BT-549; CAKI-1; CCRF-CEM; EKVX; HCC 2998; HOP-92; IGROV-1; M14; MCF7; MDA-MB-231; MDA-MB-435; MDA-N; NCI-H23; OVCAR-5; SK-MEL-5; SR; UACC-62; SF-539.
Assay in all cases: NCI-60 cell line screen, 48 h

As for `O=S(=O)(c1ccc2ccccc2c1)N1CCN(S(=O)(=O)c2ccc3ccccc3c2)CC1`, the GI50 in the experiment with A498, with ACHN, in the experiment with BT-549, with CAKI-1, with CCRF-CEM and in the experiment with EKVX was > 100 µM (inactive) throughout. Besides, the GI50 in the experiment on HCC 2998 was > 100 µM (inactive); in the experiment with HOP-92, 34.6 µM (inactive); with IGROV-1 it was > 100 µM (inactive); in the experiment on M14 it was > 100 µM (inactive); in the experiment with MCF7, > 100 µM (inactive); in the experiment on MDA-MB-231 it was > 100 µM (inactive). For the same compound, the GI50 with MDA-MB-435, with MDA-N, with NCI-H23, in the experiment on OVCAR-5, with SK-MEL-5 and in the experiment with SR was > 100 µM (inactive) throughout. Also, in the experiment with UACC-62, the GI50 was > 100 µM (inactive).
As for `Nc1nc(N)c2ncn(-c3ccc(Br)cc3)c2n1`, the GI50 is 15.6 µM (inactive) with A498; 13.3 µM (inactive) in the experiment with ACHN; 97.7 µM (inactive) with BT-549; 7.21 µM (inactive) in the experiment with CAKI-1; 8.43 µM (inactive) in the experiment on CCRF-CEM; 5.45 µM (inactive) with EKVX. Besides, the GI50 in the experiment with HCC 2998 is 37.7 µM (inactive); in the experiment on IGROV-1, 5.38 µM (inactive); in the experiment on M14 it was 14.6 µM (inactive); in the experiment with MCF7, 20.3 µM (inactive); in the experiment on MDA-MB-231 it was 23.8 µM (inactive); in the experiment on MDA-MB-435 it was 39.2 µM (inactive). Moreover, the GI50 is 60.4 µM (inactive) in the experiment on MDA-N; 40.6 µM (inactive) in the experiment with NCI-H23; 20.9 µM (inactive) with OVCAR-5; 14.7 µM (inactive) with SF-539; 32.5 µM (inactive) in the experiment on SK-MEL-5; 0.119 µM (active) with SR. Moreover, the GI50 with UACC-62 was 17.1 µM (inactive).
In the case of `CCOc1cc(/C=N/c2nc3cc4sc(/N=C/c5ccc(O)c(OCC)c5)nc4cc3s2)ccc1O`, the GI50 with A498 was > 100 µM (inactive); in the experiment on ACHN, > 100 µM (inactive); in the experiment on BT-549, > 100 µM (inactive); in the experiment on CAKI-1, > 100 µM (inactive); in the experiment with EKVX, 79.1 µM (inactive); with HCC 2998 it was > 100 µM (inactive). Also, the GI50 is > 100 µM (inactive) in the experiment with HOP-92; > 100 µM (inactive) in the experiment with IGROV-1; > 100 µM (inactive) in the experiment with M14; 82 µM (inactive) with MCF7; > 100 µM (inactive) with MDA-MB-231; > 100 µM (inactive) in the experiment with MDA-MB-435. Moreover, the GI50 in the experiment on MDA-N is 93.3 µM (inactive); in the experiment on NCI-H23, > 100 µM (inactive); with OVCAR-5, > 100 µM (inactive); in the experiment with SF-539, 20.7 µM (inactive); in the experiment with SK-MEL-5, 71.8 µM (inactive); in the experiment with SR it was 12.9 µM (inactive). For the same compound, the GI50 in the experiment on UACC-62 was > 100 µM (inactive).
Turning to `COc1ccc(C(=C(I)c2ccccc2)c2ccc(OC)cc2)cc1`, the GI50 with ACHN, in the experiment on BT-549, in the experiment on CAKI-1, in the experiment with CCRF-CEM, in the experiment with EKVX and in the experiment with HCC 2998 was > 100 µM (inactive) throughout. Also, the GI50 in the experiment on HOP-92 was > 100 µM (inactive); with IGROV-1, > 100 µM (inactive); in the experiment on M14, > 100 µM (inactive); in the experiment with MCF7 it was 21.6 µM (inactive); in the experiment on MDA-MB-231, > 100 µM (inactive); in the experiment with MDA-MB-435 it was > 100 µM (inactive). The GI50 in the experiment with MDA-N is > 100 µM (inactive); with NCI-H23, > 100 µM (inactive); with OVCAR-5, > 100 µM (inactive); in the experiment on SF-539, > 100 µM (inactive); with SK-MEL-5 it was 49.8 µM (inactive); in the experiment on SR, > 100 µM (inactive). Further, in the experiment on UACC-62, the GI50 is > 100 µM (inactive).
On to `CCN(C(=O)N[C@@H](Cc1ccccc1)C(=O)N[C@@H](CC(C)C)C(=O)OC)c1ccccc1`, for which the GI50 in the experiment with ACHN is 21.3 µM (inactive); in the experiment on BT-549, 57.1 µM (inactive); in the experiment on CAKI-1, 32.6 µM (inactive); in the experiment on CCRF-CEM, 19.3 µM (inactive); in the experiment with EKVX, 18.7 µM (inactive); with HCC 2998, 30.8 µM (inactive). Further, the GI50 with HOP-92 is 22.2 µM (inactive); with IGROV-1, 17 µM (inactive); in the experiment on M14, 8.24 µM (inactive); in the experiment with MCF7, 24 µM (inactive); in the experiment on MDA-MB-231 it was 55.7 µM (inactive); in the experiment on MDA-MB-435 it was 51.6 µM (inactive). Moreover, the GI50 in the experiment with MDA-N was 69.3 µM (inactive); with NCI-H23, 24 µM (inactive); in the experiment with OVCAR-5, 23.2 µM (inactive); in the experiment on SF-539, 19.5 µM (inactive); with SR it was 6.18 µM (inactive); in the experiment on UACC-62 it was 17.7 µM (inactive).
Turning to `CC(O)C1CC1(CO)CNc1cc(Cl)nc(N)n1` (stereo not drawn), the GI50 with ACHN, with BT-549, with CAKI-1, in the experiment on CCRF-CEM, with EKVX and in the experiment with HCC 2998 was > 100 µM (inactive) each time. Also, the GI50 in the experiment on HOP-92, in the experiment with IGROV-1, in the experiment on MCF7, in the experiment with MDA-MB-231, in the experiment with MDA-MB-435 and in the experiment with MDA-N was > 100 µM (inactive) throughout. For the same compound, the GI50 in the experiment with NCI-H23 was > 100 µM (inactive); with OVCAR-5, > 100 µM (inactive); in the experiment on SF-539, > 100 µM (inactive); in the experiment on SK-MEL-5, > 100 µM (inactive); in the experiment with SR it was > 100 µM (inactive); in the experiment on UACC-62, > 10 µM (inactive).
On to `O=S(=O)(CC(O)C(Cl)(Cl)Cl)NNc1ccccc1` (stereo not drawn), for which the GI50 with A498, in the experiment with ACHN, with BT-549, in the experiment on CAKI-1, with CCRF-CEM and in the experiment on EKVX was > 100 µM (inactive) in each case. In addition, the GI50 in the experiment on HOP-92 was > 100 µM (inactive); in the experiment with IGROV-1 it was > 100 µM (inactive); with M14 it was 81.7 µM (inactive); in the experiment on MCF7 it was > 100 µM (inactive); with MDA-MB-231, > 100 µM (inactive); with MDA-MB-435, > 100 µM (inactive). For the same compound, the GI50 is > 100 µM (inactive) with MDA-N; > 100 µM (inactive) in the experiment with NCI-H23; > 100 µM (inactive) in the experiment on OVCAR-5; > 100 µM (inactive) with SF-539; 74.1 µM (inactive) with SK-MEL-5; > 100 µM (inactive) in the experiment with SR. Also, the GI50 in the experiment on UACC-62 was 20.7 µM (inactive).
As to `CCCCC1(O)CC2CC1C(C)C2(C)C` (stereo not drawn), the GI50 in the experiment on BT-549 is > 100 µM (inactive); in the experiment with CAKI-1, > 100 µM (inactive); in the experiment on CCRF-CEM it was 93.5 µM (inactive); with EKVX it was > 100 µM (inactive); with HCC 2998, > 100 µM (inactive); with IGROV-1, > 100 µM (inactive). In addition, the GI50 in the experiment on M14, in the experiment on MCF7, in the experiment with MDA-MB-231, in the experiment on MDA-MB-435, with MDA-N and with NCI-H23 was > 100 µM (inactive) throughout. Further, the GI50 was > 100 µM (inactive) in the experiment on OVCAR-5; > 100 µM (inactive) in the experiment on SF-539; > 100 µM (inactive) in the experiment with SK-MEL-5; 44.8 µM (inactive) with SR; > 100 µM (inactive) with UACC-62.
For `CC(C)(C)c1ccc(O)c(Br)c1`, the GI50 was > 100 µM (inactive) in the experiment with A498; > 100 µM (inactive) with ACHN; > 100 µM (inactive) in the experiment on BT-549; > 100 µM (inactive) in the experiment on CCRF-CEM; > 100 µM (inactive) in the experiment on EKVX; 51.8 µM (inactive) in the experiment on HCC 2998. In addition, the GI50 with IGROV-1 is 19.1 µM (inactive); with M14, > 100 µM (inactive); with MCF7, > 100 µM (inactive); with MDA-MB-231, > 100 µM (inactive); in the experiment with MDA-MB-435, > 100 µM (inactive); in the experiment on MDA-N it was > 100 µM (inactive). Besides, the GI50 in the experiment on NCI-H23 is > 100 µM (inactive); in the experiment with OVCAR-5, > 100 µM (inactive); in the experiment on SF-539 it was > 100 µM (inactive); with SK-MEL-5, > 100 µM (inactive); in the experiment with SR, 37.3 µM (inactive); with UACC-62 it was 95.9 µM (inactive).
In the case of `Oc1cc(N2CCCC2)ccc1/C=N/N1C(=S)N(c2ccccc2)C(=N\c2ccccc2)/C1=N/c1ccccc1`, the GI50 was > 100 µM (inactive) in the experiment on ACHN; > 100 µM (inactive) with BT-549; > 100 µM (inactive) in the experiment with CAKI-1; > 100 µM (inactive) with EKVX; > 100 µM (inactive) in the experiment on HCC 2998; 63.2 µM (inactive) with HOP-92. Besides, the GI50 in the experiment on IGROV-1 was > 100 µM (inactive); in the experiment with M14 it was 34.2 µM (inactive); in the experiment with MCF7 it was 70.1 µM (inactive); in the experiment with MDA-MB-231 it was 48 µM (inactive); in the experiment with MDA-MB-435, > 100 µM (inactive); with MDA-N it was > 100 µM (inactive). In addition, the GI50 in the experiment with NCI-H23 was 87.7 µM (inactive); in the experiment on OVCAR-5, > 100 µM (inactive); in the experiment on SF-539, > 100 µM (inactive); in the experiment on SK-MEL-5, 73.3 µM (inactive); in the experiment on SR it was > 100 µM (inactive); in the experiment on UACC-62, 97.7 µM (inactive).
For the compound `CCOC(=O)c1c2c(n3ccccc13)C(=O)c1ccccc1C2=O`, the GI50 in the experiment on A498 is 61.4 µM (inactive); in the experiment with ACHN, 17.9 µM (inactive); with BT-549, 21.6 µM (inactive); with CAKI-1 it was > 100 µM (inactive); with EKVX, > 100 µM (inactive); with HCC 2998, 2.55 µM (inactive). Besides, the GI50 with HOP-92 is 44.8 µM (inactive); in the experiment with IGROV-1, > 100 µM (inactive); with M14 it was > 100 µM (inactive); in the experiment with MCF7, 46 µM (inactive); in the experiment with MDA-MB-231 it was > 100 µM (inactive); in the experiment on MDA-MB-435, > 100 µM (inactive). Further, the GI50 was > 100 µM (inactive) in the experiment on MDA-N; 42.2 µM (inactive) in the experiment with NCI-H23; > 100 µM (inactive) in the experiment with OVCAR-5; 36.7 µM (inactive) with SF-539; 10.7 µM (inactive) in the experiment on SK-MEL-5; > 100 µM (inactive) with SR. Moreover, in the experiment with UACC-62, the GI50 is 67.9 µM (inactive).
